Assay results: the supplement of paper PMC11952222, “Development and comparison of single FLT3-inhibitors to dual FLT3/TAF1-inhibitors as an anti-leukemic approach” (PLOS One, 2025)
± gives the standard deviation of the averaged measurements.

The compounds below were run on KASUMI-1 (assay: cell viability (CellTiter-Glo luminescence) relative to DMSO (fraction of DMSO control); higher = higher signal (more live cells for CellTiter-Glo)). Details: 3 µM; 72 h.
Method: (§1)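 MOLM13, DU4475, HDQP1 and IGROV1 cells were treated with compounds in 384-well format for 72 h (KASUMI-1 in 96-well plates, RPMI + 10% FCS, 72 h). Viability was read with CellTiter-Glo and cell death with CellTox Green, both normalised to DMSO vehicle. Doses ranged 0.001-30 µM.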

SMILES | cell viability
CC(C)(C)c1ccc(C(=O)Nc2cc(-c3ccccc3)n[nH]2)cc1 [3i-1247] | 0.5738 ± 0.0019
Cn1cc(-c2cc(NC(=O)c3ccc(C(C)(C)C)cc3)n[nH]2)ccc1=O [3i-1248] | 1.11 ± 0.061

Same assay, conditions: 9.48683 µM; 72 h

SMILES | cell viability
Cc1cc(-c2cc(NC(=O)c3ccc(C(C)(C)C)cc3)[nH]n2)ccn1 [3i-1246] | 0.239 ± 0.0055
CC(C)(C)c1ccc(C(=O)Nc2cc(-c3ccccc3)n[nH]2)cc1 [3i-1247] | 0.1148 ± 0.00061
Cn1cc(-c2cc(NC(=O)c3ccc(C(C)(C)C)cc3)n[nH]2)ccc1=O [3i-1248] | 0.455 ± 0.036

Same assay, conditions: 30 µM; 72 h

SMILES | cell viability
Cc1cc(-c2cc(NC(=O)c3ccc(C(C)(C)C)cc3)[nH]n2)ccn1 [3i-1246] | 0.00978 ± 0.0007
CC(C)(C)c1ccc(C(=O)Nc2cc(-c3ccccc3)n[nH]2)cc1 [3i-1247] | 0.0202 ± 0.0019
Cn1cc(-c2cc(NC(=O)c3ccc(C(C)(C)C)cc3)n[nH]2)ccc1=O [3i-1248] | 0.00672 ± 0.00072

The compounds below were run on MOLM13 in the same assay as above. Details: 0.01 µM; 72 h.
Method: as §1

SMILES | cell viability
Cc1cc(-c2cc(NC(=O)c3ccc(C(C)(C)C)cc3)[nH]n2)ccn1 [3i-1246] | 0.959 ± 0.052
CC(C)(C)c1ccc(C(=O)Nc2cc(-c3ccccc3)n[nH]2)cc1 [3i-1247] | 0.858 ± 0.073
Cn1cc(-c2cc(NC(=O)c3ccc(C(C)(C)C)cc3)n[nH]2)ccc1=O [3i-1248] | 0.988 ± 0.09
C=CCCn1cc(-c2cc(C(=O)N3CCOCC3)cc3c2ncn3C)c2cc[nH]c2c1=O [GNE-371] | 1.01 ± 0.041
CC(C)(C)c1cc(NC(=O)Nc2ccc(-c3cn4c(n3)sc3cc(OCCN5CCOCC5)ccc34)cc2)no1 [quizartinib] | 0.00342 ± 0.00075

Same assay, conditions: 0.1 µM; 72 h

SMILES | cell viability
Cc1cc(-c2cc(NC(=O)c3ccc(C(C)(C)C)cc3)[nH]n2)ccn1 [3i-1246] | 0.755 ± 0.043
CC(C)(C)c1ccc(C(=O)Nc2cc(-c3ccccc3)n[nH]2)cc1 [3i-1247] | 0.388 ± 0.12
Cn1cc(-c2cc(NC(=O)c3ccc(C(C)(C)C)cc3)n[nH]2)ccc1=O [3i-1248] | 0.912 ± 0.088
C=CCCn1cc(-c2cc(C(=O)N3CCOCC3)cc3c2ncn3C)c2cc[nH]c2c1=O [GNE-371] | 0.989 ± 0.05
CC(C)(C)c1cc(NC(=O)Nc2ccc(-c3cn4c(n3)sc3cc(OCCN5CCOCC5)ccc34)cc2)no1 [quizartinib] | 0.00261 ± 0.00061

Same assay, conditions: 0.3 µM; 72 h

SMILES | cell viability
Cc1cc(-c2cc(NC(=O)c3ccc(C(C)(C)C)cc3)[nH]n2)ccn1 [3i-1246] | 0.418 ± 0.062
CC(C)(C)c1ccc(C(=O)Nc2cc(-c3ccccc3)n[nH]2)cc1 [3i-1247] | 0.19 ± 0.062
Cn1cc(-c2cc(NC(=O)c3ccc(C(C)(C)C)cc3)n[nH]2)ccc1=O [3i-1248] | 0.773 ± 0.053
C=CCCn1cc(-c2cc(C(=O)N3CCOCC3)cc3c2ncn3C)c2cc[nH]c2c1=O [GNE-371] | 0.986 ± 0.025
CC(C)(C)c1cc(NC(=O)Nc2ccc(-c3cn4c(n3)sc3cc(OCCN5CCOCC5)ccc34)cc2)no1 [quizartinib] | 0.00141 ± 0.0005

Same assay, conditions: 1 µM; 72 h

SMILES | cell viability
Cc1cc(-c2cc(NC(=O)c3ccc(C(C)(C)C)cc3)[nH]n2)ccn1 [3i-1246] | 0.21 ± 0.031
CC(C)(C)c1ccc(C(=O)Nc2cc(-c3ccccc3)n[nH]2)cc1 [3i-1247] | 0.0317 ± 0.0089
Cn1cc(-c2cc(NC(=O)c3ccc(C(C)(C)C)cc3)n[nH]2)ccc1=O [3i-1248] | 0.459 ± 0.07
C=CCCn1cc(-c2cc(C(=O)N3CCOCC3)cc3c2ncn3C)c2cc[nH]c2c1=O [GNE-371] | 0.994 ± 0.031
CC(C)(C)c1cc(NC(=O)Nc2ccc(-c3cn4c(n3)sc3cc(OCCN5CCOCC5)ccc34)cc2)no1 [quizartinib] | 0.00194 ± 0.00081

Same assay, conditions: 3 µM; 72 h

SMILES | cell viability
Cc1cc(-c2cc(NC(=O)c3ccc(C(C)(C)C)cc3)[nH]n2)ccn1 [3i-1246] | 0.0386 ± 0.018
CC(C)(C)c1ccc(C(=O)Nc2cc(-c3ccccc3)n[nH]2)cc1 [3i-1247] | 0.00462 ± 0.0058
Cn1cc(-c2cc(NC(=O)c3ccc(C(C)(C)C)cc3)n[nH]2)ccc1=O [3i-1248] | 0.179 ± 0.049
C=CCCn1cc(-c2cc(C(=O)N3CCOCC3)cc3c2ncn3C)c2cc[nH]c2c1=O [GNE-371] | 0.986 ± 0.056
CC(C)(C)c1cc(NC(=O)Nc2ccc(-c3cn4c(n3)sc3cc(OCCN5CCOCC5)ccc34)cc2)no1 [quizartinib] | 0.000901 ± 0.00082

Same assay, conditions: 10 µM; 72 h

SMILES | cell viability
Cc1cc(-c2cc(NC(=O)c3ccc(C(C)(C)C)cc3)[nH]n2)ccn1 [3i-1246] | 0.0136 ± 0.037
CC(C)(C)c1ccc(C(=O)Nc2cc(-c3ccccc3)n[nH]2)cc1 [3i-1247] | 0.00157 ± 0.00088
Cn1cc(-c2cc(NC(=O)c3ccc(C(C)(C)C)cc3)n[nH]2)ccc1=O [3i-1248] | 0.00744 ± 0.0056
C=CCCn1cc(-c2cc(C(=O)N3CCOCC3)cc3c2ncn3C)c2cc[nH]c2c1=O [GNE-371] | 0.95 ± 0.067
CC(C)(C)c1cc(NC(=O)Nc2ccc(-c3cn4c(n3)sc3cc(OCCN5CCOCC5)ccc34)cc2)no1 [quizartinib] | 0.00066 ± 0.00036

Same assay, conditions: 30 µM; 72 h

SMILES | cell viability
Cc1cc(-c2cc(NC(=O)c3ccc(C(C)(C)C)cc3)[nH]n2)ccn1 [3i-1246] | 0.000242 ± 0.0027
CC(C)(C)c1ccc(C(=O)Nc2cc(-c3ccccc3)n[nH]2)cc1 [3i-1247] | 0.000514 ± 0.00038
Cn1cc(-c2cc(NC(=O)c3ccc(C(C)(C)C)cc3)n[nH]2)ccc1=O [3i-1248] | -0.000138 ± 0.00087
C=CCCn1cc(-c2cc(C(=O)N3CCOCC3)cc3c2ncn3C)c2cc[nH]c2c1=O [GNE-371] | 0.928 ± 0.091
CC(C)(C)c1cc(NC(=O)Nc2ccc(-c3cn4c(n3)sc3cc(OCCN5CCOCC5)ccc34)cc2)no1 [quizartinib] | 0.000483 ± 0.00064
